The results in this text go back to patent publication US6339062B1, “Retroinverso polypeptides that mimic or inhibit thrombospondin activity” (Inkine Pharmaceutical Company, Inc., priority 1998, dated 2002).

For experiment [1], the system named is MMP-9 production in BAE cells. The experiment in a line: TSP-1-stimulated endothelial MMP-9 production (Example 27). The format is cell-based. The conditions noted are these: for Relative MMP-9 Levels / % inhibition (MMP-9): with 15 μg/ml TSP-1; for inhibited MMP-9 production: at high doses. The method, then: BAE cells were treated with TSP-1 as described in Example 27. MMP-9 levels were quantitated from densitometry of the zymograms prepared from the BAE cell conditioned media. The control was 15 μg/ml TSP-1. All other treatments were performed in the presence of 15 μg/ml TSP-1.

The test system of experiment [2] is mouse B16-F10 melanoma cells. The experiment in a line: Boyden chamber assay, TSP-1 mediated invasion of collagen (Examples 29, 30). The class given is cell-based. The conditions noted are these: for inhibition of TSP-1 mediated invasion: 500 μg/ml peptide top chamber, 20 μg/ml TSP-1 bottom chamber, 6 hours, FIG. 18. The method, then:
Cell invasion was investigated by the Boyden Chamber Invasion Assay using the modified Boyden chamber. T. Frandsen et al., Fibrinolysis, 6: 71-76 (1992). Polycarbonate filters, 12 μm pore size, e.g., Millicell, Millipore Corporation, Bedford, Ma, were coated with 100 μg Type IV collagen (1 mg/ml 60% EtOH) and dried overnight at 25° C. Blind-well Boyden chambers are filled with 600 μl of serum-free media containing 0.1% BSA in the lower compartment, and the coated filters will be mounted in the chamber. Approximately 50,000 cells (tested to be greater than 95% viable) suspended in 400 μl of the same media will be placed in the upper chamber of the apparatus and allowed to settle onto the collagen-coated membrane. Varying concentrations of TSP-1 (0-150 nM) will be placed in the lower compartment and any neutralizing antibodies as well as peptides will be placed in the upper chamber. After an incubation period of about 3 to 6 hours at 37° C., the cells on the upper surface of the filter will be removed with a cotton swab. The filters are then fixed in 3% glutaraldehyde solution and stained with 0.5% crystal violet solution. Invasive cells adhering to the under-surface of the filter are counted using a phase contrast microscope (400×).
Using this assay, mouse B16-F10 melanoma cells (50,000) were plated on the collagen-coated disk of the Boyden chamber apparatus. The top chamber contained melanoma cells in the presence of 500 μg/ml of the TSP-1 derived peptide and the bottom chamber contained 20 μg/ml TSP-1. After 6 hours, cells traversing the collagen were counted as cells attached to the underside of the collagen-coated disk. Five representative fields per chamber in duplicate were counted. The data shown in FIG. 18 represents the average per field and the error bars represent the standard deviation. The scrambled peptide, Val-Cys-Thr-Gly-Ser-Cys (SEQ ID NO: 7), the irrelevant peptide, Ala-Ser-Val-Thr-Ala-Arg (SEQ ID NO: 38), buffer, and the d-amino acid Cys-Ser-Val-Thr-Cys-Gly (SEQ ID NO: 40) had no effect on invasion.
The experiments were performed as described for Example 29. […] In contrast, d-Cys-Ser-Val-Thr-Cys-Gly (SEQ ID NO: 40) had no effect.

Experiment [3] concerns mouse B16-F10 melanoma cells. The experiment in a line: Direct adhesion to dried peptide (Example 31). The format is cell-based. The conditions noted are these: 10 μg of each peptide; one hour; FIG. 20. Here is the method: Peptide effect on direct adhesion was tested by drying 10 μg of each peptide on the bottom of a 96well microtiter plate. Plates were blocked with BSA. Mouse B16-F10 melanoma cells (50,000) were plated in each well and allowed to attach for one hour. Non-adherent cells were aspirated out, plates rinsed, and adherent cells were fixed, stained, and counted. The error bars represent the standard deviation.

Experiment [4] deals with mouse B16-F10 melanoma cells. The experiment can be described thus: Melanoma tumor cell metastasis, peptide i.v. (Example 21). The format is in vivo, mice. The conditions noted are these: 1 mg peptide i.v. shortly before or after tumor implantation; two weeks; FIG. 12. From the text: Mice were sacrificed two weeks later and lung tumors counted. Treatment groups consisted of five animals. The photograph of FIG. 12 depicts three lungs from each treatment group. The black spots are melanoma tumors. All metastasis experiments were repeated 2-3 times showing qualitatively similar results depicted in the bar graph of FIG. 12.

Experiment [5] has as its system Mouse B16 F10 melanoma cells. The experiment in a line: Direct adhesion assay (Example 16). The format is cell-based. The conditions noted are these: absorbed compound 2 μg. Here is the method: It is believed that thrombospondin acts in metastasis through its adhesive properties. An assay was developed, generally in accordance with the disclosure of Tuszynski et al., Anal. Bio., 184:189-91 (1990), which evaluates the ability of melanoma cells to adhere to the thrombospondin fragments or analogs of the invention. In this assay, wells of a 96-well microtiter dish (Costar, Cambridge, Mass.) were incubated for two to three hours with […] of a […] solution of various ligands in 20 mM NaCl, pH 7.3. Thrombospondin (purified by the method of Tuszynski et al., J. Biol. Chem., 260:12240-5 (1985), fibronectin (Sigma Chemical Co., Missouri) served as the positive control. Bovine serum albumin (BSA) (Sigma Chemical Co.) served as the negative control. Thrombospondin analogs of the invention p1, p5 and p6 were synthesized as described in Examples 1 through 3. Following peptide adhesion to the microtiter dish, the wells were aspirated, treated with 200 μl phosphate buffered saline (PBS) containing 1% BSA for 1 hour and then washed three more times with 200 μl PBS.
Mouse B16 F10 melanoma cells were grown and harvested during log phase of growth using standard procedures. The harvested cells were washed two times in serum-free Dulbecco's minimum essential medium (DMEM) (Flow Laboratories) and suspended in DMEM at a final concentration of 4×10^5 cells/ml. Of the cell suspension 100 μl was added to each well of the microtiter dish containing the various ligands and the dish incubated at 37° C. in a CO2 incubator for 1 hour. Nonadherent cells were removed by aspiration and the wells washed three times with 200 μl of PBS. The total cell-associated protein was determined by dissolving the attached cells directly in the microtiter wells with 200 μl of the Pierce BCA working solution (Pierce Chem. Co. Booklet No. 23225 (1987)). […] Plates were allowed to cool to room temperature, cover sheets were removed, and the absorbance of each well was determined at 562 nm with a microtiter plate reader (Biotek, Burlington, Vt.)

A further experiment deals with platelets. The experiment in a line: Direct platelet adhesion assay (Example 18). The class given is cell-based. The conditions noted are these: wells treated with 50 μl of 40 μg/ml. The method, then: The number of adherent platelets was essentially determined as previously described (Tuszynski et al., Anal. Bio., supra). Briefly, 100 μl of 5×10^8 platelets/ml washed as previously described (Tuszynski, et al., Blood, 72:109-225 (1988)) were added to microtiter plates, the wells of which were treated with 50 μl of a 40 μg/ml peptide or protein solution (Hepes buffered saline, pH 7.4). Solutions were dried at room temperature after incubation in a fume hood for two hours. Wells were blocked for one hour with 1% BSA. Platelets (100 μl) were incubated in the wells for 30 minutes and non-adherent platelets were removed by aspiration. Wells were washed 3× with 200 μl of Hepes buffered saline, pH 7.4. The number of adherent platelets was determined by measuring the platelet-derived protein using the BCA protein assay.

Experiment [6] deals with platelets (platelet-rich-plasma). The experiment can be described thus: Platelet aggregation assay in platelet-rich-plasma (Example 8). The format is cell-based. The conditions noted are these: in vitro; FIG. 22. The method, then:
Platelet aggregation was monitored on a single-channel aggregometer equipped to measure luminescence (Chromo-Log, Havertown, Pa.). Platelet-rich-plasma (PRP) was obtained from whole blood anticoagulated with 0.38% sodium citrate by centrifugation at 150×g for 20 minutes.
0.5 ml aliquots of platelet-rich-plasma were aggregated by stirring with 2 uM ADP in the presence of various concentrations of Cys-Ser-Val-Thr-Cys-Gly (SEQ ID NO: 21) and Gly-Arg-Gly-Asp-Ser (SEQ ID NO: 36). Aggregation was measured at 37° as decrease in optical absorbance vs. time in a chrono-log aggregometer and is shown in FIG. 8. Peptides designated in each panel are represented by their amino acid sequence using the one letter amino acid code.

In experiment [7] the test system is melanoma cells on absorbed thrombospondin. The experiment can be described thus: Competitive assay, thrombospondin specific adhesion to melanoma cells (Example 17). The class given is cell-based, mouse. The text has this:
The direct adhesion assay of Example 16 was modified to measure the ability of the peptide compounds of the invention to compete with intact thrombospondin for adhesion to melanoma cells.
In this assay, intact thrombospondin is absorbed onto microtiter dishes as described in Example 16. […]

For experiment [8], the system named is platelets on absorbed thrombospondin (TSP). The experiment in a line: Competitive platelet adhesion assay, absorbed thrombospondin (Example 19). The conditions noted are these: 250 μg/ml; absorbed protein TSP. The class given is cell-based. Here is the method: (§1) The direct adhesion assay of Example 18 was modified to measure the ability of the peptide compounds of the invention to compete with intact thrombospindin or fibronectin for adhesion of platelets.
(§2) In this assay, thrombospondin (TSP) or fibronectin (FN) was absorbed onto microtiter dish as described in Example 18. The assay was similar to Example 18 except that before platelets were added to the microtiter dishes they were preincubated with 250 μg/ml of various ligands.

Experiment [9] has as its system platelets on absorbed fibronectin (FN). The experiment can be described thus: Competitive platelet adhesion assay, absorbed fibronectin (Example 19). The conditions noted are these: 250 μg/ml; absorbed protein FN. The format is cell-based. The method, then: as §1, §2
For experiment [10], the system named is B16 F10 mouse melanoma cells. The experiment in a line: Antimetastatic activity in vivo (Example 20). Set-up: species or system C57 black mice. The conditions noted are these: 16 days.

Bridges are numbered along the chain shown (N, C = ends). Where no end group is shown, it is not given here.

Turning to ASVTAR [irrelevant peptide], the “Relative MMP-9 Levels” value in [1] (0.20 mM) was found to be 0.78. Further, in experiment [1], the “inhibited MMP-9 production” value is listed as “no effects”. For the same substance, the “inhibition of TSP-1 mediated invasion” value in experiment [2] was “no effect”. Further, the “adhesion of cells to dried peptide” value in experiment [3] is reported as “did not promote adhesion”.
Turning to Arg-Gly-Asp, in experiment [1] (0.50 mM), the “% inhibition (MMP-9)” value was determined as 0% and the “Relative MMP-9 Levels” value turned out to be 1.03. Besides, the “inhibited MMP-9 production” value in [1] is recorded as “no effects”.
As to “CSTSCG (cysteine pairing not given here)”, the “melanoma cell metastasis (lung tumors)” value in [4] is “significantly blocked”.
Regarding “Cys-Ser-Val-Thr-Cys-Gly (disulfide linked) (CSVTCG; disulfide 1-5 (inferred)) [cyclic Cys-Ser-Val-Thr-Cys-Gly]”, the “melanoma cell metastasis (lung tumors)” value in experiment [4] is recorded as “significantly blocked”.
Turning to Heparin, the “% inhibition (MMP-9)” value in [1] (50 μg/ml) was determined as 6%; in experiment [1] (500 μg/ml) it was 55%; in experiment [1] (1000 μg/ml) it was 50%. For the same substance, the “Relative MMP-9 Levels” value in [1] (50 μg/ml) amounted to 0.94; in [1] (500 μg/ml), 0.45; in experiment [1] (1000 μg/ml), 0.50. Besides, in experiment [1], the “inhibited MMP-9 production” value came out at 50%.
In the case of “Thrombospondin: purified thrombospondin, positive control [reference compound]”, the “Adhesion as % Thrombospondin” value in experiment [5] is 100%. For the same substance, the “Adherence as % Control (adherent platelets)” value (“Adherence as % Control” below) in the experiment with platelets was found to be 100%.
With “Trp-Ser-Pro-Cys-Ser-Val-Thr-Cys-Gly-NH2 (WSPCSVTCG-NH2; cysteine pairing not given here) [p6]”, the platelet aggregation result in experiment [6] is “inhibit platelet aggregation”. Further, the “% of Buffer Control (melanoma cell adhesion to thrombospondin)” value in experiment [7] (200 μg/ml) and in [7] (300 μg/ml) was 74% each time. The “% Buffer Control (platelet adhesion)” value came to 98% in experiment [8] and 96% in [9]. The “% buffer control (number of lung tumors)” value amounted to 91% in experiment [10] (30 μg/mouse), 102% in experiment [10] (100 μg/mouse) and 50% in [10] (300 μg/mouse). Also, the “number of tumors compared with controls” value in experiment [10] is on record as “statistically fewer tumors than controls”. Also, the “size of lung tumors” value in [10] is “smaller in size”.
In the case of “VCTGSC (cysteine pairing not given here) [scrambled peptide control, reference compound]”, in experiment [2], the “inhibition of TSP-1 mediated invasion” value was “no effect”. In experiment [3], the “adhesion of cells to dried peptide” value is “did not promote adhesion”.
Take “WSPCSVTCG (cysteine pairing not given here) [p1]”: in [6], the platelet aggregation entry is reported as “inhibit platelet aggregation”. Further, the figures for the “% of Buffer Control (melanoma cell adhesion to thrombospondin)” value in [7] (10 μg/ml) and in experiment [7] (50 μg/ml) were 49% and 40%, respectively. Further, the “Adherence as % Control” value in the experiment with platelets is “adhere to platelets”; in the experiment with platelets (listed as P1), 39%. In experiment [10] (30 μg/mouse), the “% buffer control (number of lung tumors)” value is 49%. In addition, the “number of tumors compared with controls” value in [10] was “statistically fewer tumors than controls”. Also, the “size of lung tumors” value in experiment [10] is on record as “smaller in size”.
With d-Gly-Cys-(Acm)-Thr-Val-Ser-Cys-(Acm), the “dose-dependent effect on melanoma cell invasion” value in [2] (FIG. 19) is “same dose-dependent inhibition”. In addition, the “adhesion of cells to dried peptide” value in [3] was “half as well as fibronectin and TSP-1”.
Take fibronectin [reference compound]: the “Adherence as % Control” value in the experiment on platelets turned out to be 83%.
